Key:
[1] = Inhibition of PI3K assessed as amount of ADP produced preincubated with compound and L-alpha-phosphatidylinositol for 5 mins by Glo Max luminescent kinase assay
T47D = experiment: Antiproliferative activity against human T47D cells after 48 hrs by MTT assay; format: functional, cell-based
SK-BR-3 = experiment: Antiproliferative activity against human SKBR3 cells after 48 hrs by MTT assay; format: functional, cell-based; details: SK-BR-3, 48 h
MCF7 = experiment: Antiproliferative activity against human MCF7 cells after 48 hrs by MTT assay; format: functional, cell-based; details: MCF7, 48 h

Row | IC50 [1] [µM] | IC50 (T47D) [µM] | IC50 (SK-BR-3) [µM] | IC50 (MCF7) [µM] | Compound
1 | > 30 |  |  |  | CN(C)c1ccc(-c2nc3c(c(=O)n(C)c(=O)n3C)n2-c2ccc(Cl)c(Cl)c2)cc1
2 | > 30 |  |  |  | COc1ccc(-n2c(-c3cnccc3NS(C)(=O)=O)nc3c2c(=O)n(C)c(=O)n3C)cc1
3 | 4.5 |  |  |  | COc1ccc(-n2c(-c3cncc(NS(C)(=O)=O)c3)nc3c2c(=O)n(C)c(=O)n3C)cc1
4 | 20 |  |  |  | CN(C)c1ccc(-c2nc3c(c(=O)n(C)c(=O)n3C)n2-c2cccc(F)c2)cc1
5 | 0.091 |  |  |  | COc1ccc(-n2c(-c3cncc(NS(=O)(=O)c4ccccc4)c3)nc3c2c(=O)n(C)c(=O)n3C)cc1
6 | 22 |  |  |  | COc1ccc(-n2c(-c3ccc(N(C)C)cc3)nc3c2c(=O)n(C)c(=O)n3C)cc1F
7 | 0.28 |  |  |  | CC(=O)Nc1ccc(-c2nc3c(c(=O)n(C)c(=O)n3C)n2-c2ccc(Cl)c(Cl)c2)cc1
8 | 0.068 | 0.9 | 15.4 | 1.7 | CC(=O)Nc1ccc(-c2nc3c(c(=O)n(C)c(=O)n3C)n2-c2cccc(F)c2)cc1
9 | 0.37 |  |  |  | CC(=O)Nc1ccc(-c2nc3c(c(=O)n(C)c(=O)n3C)n2-c2ccc(C)cc2)cc1
10 | 0.15 | 3.7 | > 25 | 9.4 | COc1ccc(-n2c(-c3ccc(NC(C)=O)cc3)nc3c2c(=O)n(C)c(=O)n3C)cc1
11 | 8.5 |  |  |  | COc1ccc(-n2c(-c3ccc(NC(C)=O)c(OC)c3)nc3c2c(=O)n(C)c(=O)n3C)cc1F
12 | 22 |  |  |  | COc1ccc(-n2c(-c3ccc(N(C)C)cc3)nc3c2c(=O)n(C)c(=O)n3C)cc1
13 | 0.22 |  |  |  | COc1ccc(-n2c(-c3cncc(NS(=O)(=O)c4ccc(C)cc4)c3)nc3c2c(=O)n(C)c(=O)n3C)cc1
14 | 0.031 | 1.6 | 11.5 | 2.8 | COc1ccc(-n2c(-c3ccc(NC(C)=O)cc3)nc3c2c(=O)n(C)c(=O)n3C)cc1F
15 | 22 |  |  |  | COc1cc(N(C)C)ccc1-c1nc2c(c(=O)n(C)c(=O)n2C)n1-c1cccc(F)c1
16 | 3.2 |  |  |  | COc1ccc(-n2c(-c3cccc(NS(C)(=O)=O)c3)nc3c2c(=O)n(C)c(=O)n3C)cc1
17 | 0.51 |  |  |  | COc1ccc(-n2c(-c3ccc(NC(C)=O)cc3)nc3c2c(=O)n(C)c(=O)n3C)cc1OC
18 | 13 |  |  |  | COc1cc(NC(C)=O)ccc1-c1nc2c(c(=O)n(C)c(=O)n2C)n1-c1ccc(Cl)c(Cl)c1
19 | 0.21 | 1.7 | > 25 | 4.2 | COC(=O)Nc1ccc(-c2nc3c(c(=O)n(C)c(=O)n3C)n2-c2ccc(OC)cc2)cc1
20 | 15 |  |  |  | COc1cc(N(C)C)ccc1-c1nc2c(c(=O)n(C)c(=O)n2C)n1-c1cc(F)cc(F)c1
21 | 25 |  |  |  | CN(C)c1ccc(-c2nc3c(c(=O)n(C)c(=O)n3C)n2-c2cc(F)cc(F)c2)cc1
22 | 0.017 | 4.7 | > 25 | 11.6 | CNC(=O)Nc1ccc(-c2nc3c(c(=O)n(C)c(=O)n3C)n2-c2ccc(OC)c(F)c2)cc1
23 | 12.5 |  |  |  | CC(=O)Nc1ccc(-c2nc3c(c(=O)n(C)c(=O)n3C)n2-c2ccccc2)cc1
24 | 25 |  |  |  | COc1ccc(-n2c(-c3ccc(N(C)C)cc3)nc3c2c(=O)n(C)c(=O)n3C)cc1OC

Source: ChEMBL document CHEMBL1795300, “Fluorescent phosphoinositide 3-kinase inhibitors suitable for monitoring of intracellular distribution” (Bioorg Med Chem, 2011)
